Columns and labels:
swallowing response [1] = test: Ten-minute infusion of taste stimuli onto the taste receptors of the tongue; pharyngeal MEP (Example 2); format: in vivo, human; conditions: volunteers; ten minute infusion to tongue taste receptors; taken over a 60 minute period from administration
Description: Confirmation of the suitability of […] tasting substances such as the alkaloid quinine to stimulate the swallowing response and thereby aid treatment or reduction of dysphagia was obtained from a second study measuring swallowing reflexes of volunteers receiving neutral, pleasant or aversive taste stimuli. Volunteers receive a ten minute infusion of neutral (water), pleasant (glucose) or aversive (quinine) taste stimuli administered such that they stimulated the taste receptors of the tongue.

swallowing response [2] = test: Ten-minute infusion of taste stimuli directly into the stomach; pharyngeal MEP (Example 3); format: in vivo, human; conditions: volunteers; ten minute infusion administered directly to the stomach
Description: The ability of substances such as the […] tasting alkaloid quinine to stimulate the swallowing response when administered into the portion of the upper digestive tract below the mouth was in a third study measuring swallowing reflexes of volunteers receiving neutral, pleasant or aversive taste stimuli. Volunteers receive a ten minute infusion of neutral (water), pleasant (glucose) or aversive (quinine) taste stimuli administered directly into the volunteer's stomach.

[3] = tested on: human cortical swallowing pathways; test: Ten-minute liquid swallowing task with taste solutions; TMS-evoked cortico-pharyngeal motor responses (Example 1); format: in vivo; conditions: 8 healthy adult volunteers; 0.5 mM quinine hydrochloride swallowing task; immediately and throughout 60 minutes post-intervention; p<0.01
Description: An assessment was made as to the effects of different taste stimuli on human cortical swallowing pathways. The assessment was made upon 8 healthy adult volunteers (seven of which were male, the minimum age of the volunteers being 29 years).
Each volunteer performed a ten-minute, liquid swallowing task using three (previously titrated) different taste solutions. The three solutions utilised were sterile water (neutral taste), 10% glucose (sweet/pleasant taste), and 0.5 mM quinine hydrochloride (bitter/aversive taste). Solutions were randomised to separate studies at least 24 hours apart.
Transcranial magnetic stimulation was performed over the swallowing motor cortex, before and up to one hour after each swallow task in accordance with established protocols. Briefly, Single pulse (monophasic) transcranial stimulation (sTMS) of the cerebral cortex was achieved using a magnetic stimulator (a Magstim 200, manufactured by MAGSTIM Company Limited, Whitland, Wales) connected to a 70 mm outer diameter figure-of-8 coil (maximal output of 2.2 Tesla (T)), held in an A-P (Anterior-Posterior) direction, at an angle of 45° tangential to the scalp. […]
Cortico-pharyngeal motor responses were recorded from a swallowed intra-luminal catheter as a measure of cortical excitability. […]

SMILES: C=C[C@H]1C[N@@]2CC[C@H]1C[C@H]2[C@H](O)c1ccnc2ccc(OC)cc12 [quinine]
- increase in the amplitude of MEP compared with neutral tasting water or pleasant tasting glucose (swallowing response [1]): greater increase
- increase in the swallowing response (measured by MEP) (swallowing response [2]): 39%
- maximum percentage change from base line in pharyngeal motor evoked potential (MEP) amplitude [3]: 48±11%
